Laboratory results taken from patent US20140171357A1, “VANCOMYCIN DERIVATIVES” (Seachald Pharmaceuticals, Inc., priority 2011, published 2014).
Values after ≈ are worked out from the molar mass of the structure shown. Each block holds one compound with its values, some of them ahead of it.

Tests used:
[1] = test system: VanA vancomycin-resistant E. faecium (10); test: MIC broth microdilution, VanA E. faecium; settings: for MIC 50% / MIC 90%: E. faecium, VanA (10)
[2] = test system: VanB vancomycin-resistant E. faecalis (12); test: MIC broth microdilution, VanB E. faecalis; settings: for MIC 50% / MIC 90%: E. faecalis, VanB (12)
[3] = test system: VanA vancomycin-resistant E. faecalis (11); test: MIC broth microdilution, VanA E. faecalis; settings: for MIC 50% / MIC 90%: E. faecalis, VanA (11)
[4] = test system: methicillin-resistant S. aureus (MRSA, 22); test: MIC broth microdilution, MRSA; settings: for MIC 50% / MIC 90%: MRSA (22)
[5] = test system: vancomycin-susceptible E. faecium (21); test: MIC broth microdilution, vancomycin-susceptible E. faecium; settings: for MIC 50% / MIC 90%: E. faecium, vancomycin-susceptible (21)
[6] = test system: VanB vancomycin-resistant E. faecium (10); test: MIC broth microdilution, VanB E. faecium; settings: for MIC 50% / MIC 90%: E. faecium, VanB (10)
[7] = test system: methicillin-susceptible S. aureus (MSSA, 22); test: MIC broth microdilution, MSSA; settings: for MIC 50% / MIC 90%: MSSA (22)
[8] = test system: Staphylococcus aureus (65 strains); test: MIC broth microdilution, S. aureus all isolates; settings: for MIC 50% / MIC 90%: S. aureus (65), all resistance subsets
[9] = test system: VanC enterococci (22); test: MIC broth microdilution, vanC-carrying enterococci; settings: for MIC 50% / MIC 90%: VanC enterococci (22)
[10] = test system: Staphylococcus epidermidis (43 strains); test: MIC broth microdilution, S. epidermidis; settings: for MIC 50% / MIC 90%: S. epidermidis (43)
[11] = test system: E. faecalis; test: MIC broth microdilution, E. faecalis regardless of vancomycin susceptibility; settings: Enterococcus faecalis
[12] = test system: vancomycin-susceptible E. faecalis (23); test: MIC broth microdilution, vancomycin-susceptible E. faecalis; settings: for MIC 50% / MIC 90%: E. faecalis, vancomycin-susceptible (23)
[13] = test system: S. aureus ATCC 25923; test: Neutropenic murine thigh infection model; settings: for AUCc-t (AUC difference between control and treated animals): 24 h time kill
[14] = test system: heterogeneous VISA (hVISA, 10); test: MIC broth microdilution, hVISA
[15] = test system: vancomycin-intermediate S. aureus (VISA, 5); test: MIC broth microdilution, VISA
[16] = test system: vancomycin-resistant S. aureus (VRSA, 6); test: MIC broth microdilution, VRSA
[17] = test system: S. pneumoniae (22); test: MIC broth microdilution, S. pneumoniae; settings: S. pneumoniae (22); MHB + lysed horse blood
[18] = test system: β-hemolytic streptococci (23); test: MIC broth microdilution, β-hemolytic streptococci; settings: for MIC 50% / MIC 90%: β-hemolytic streptococci (23), MHB + lysed horse blood
[19] = 1 mg/kg single intraperitoneal dose
[20] = 4 mg/kg single intraperitoneal dose
[21] = 16 mg/kg single intraperitoneal dose

MIC50 ([1]; Enterococcus faecium): 1 µg/mL (≈ 2.96 µM)
MIC90 ([1]; Enterococcus faecium): 1 µg/mL (≈ 2.96 µM)
MIC50 ([2]; Enterococcus faecalis): 1 µg/mL (≈ 2.96 µM)
MIC90 ([2]; Enterococcus faecalis): 1 µg/mL (≈ 2.96 µM)
MIC50 ([3]; Enterococcus faecalis): 1 µg/mL (≈ 2.96 µM)
MIC90 ([3]; Enterococcus faecalis): 1 µg/mL (≈ 2.96 µM)
MIC50 ([4]; Staphylococcus aureus, MRSA): 1 µg/mL (≈ 2.96 µM)
MIC90 ([4]; Staphylococcus aureus, MRSA): 1 µg/mL (≈ 2.96 µM)
MIC50 ([5]; Enterococcus faecium): 1 µg/mL (≈ 2.96 µM)
MIC90 ([5]; Enterococcus faecium): 2 µg/mL (≈ 5.93 µM)
MIC50 ([6]; Enterococcus faecium): 1 µg/mL (≈ 2.96 µM)
MIC90 ([6]; Enterococcus faecium): 1 µg/mL (≈ 2.96 µM)
MIC50 ([7]; Staphylococcus aureus, MSSA): 1 µg/mL (≈ 2.96 µM)
MIC90 ([7]; Staphylococcus aureus, MSSA): 1 µg/mL (≈ 2.96 µM)
MIC50 ([8]; Staphylococcus aureus): 1 µg/mL (≈ 2.96 µM)
MIC90 ([8]; Staphylococcus aureus): 1 µg/mL (≈ 2.96 µM)
MIC50 [9]: 1 µg/mL (≈ 2.96 µM)
MIC90 [9]: 2 µg/mL (≈ 5.93 µM)
MIC50 ([10]; Staphylococcus epidermidis): 0.5 µg/mL (≈ 1.48 µM)
MIC90 ([10]; Staphylococcus epidermidis): 1 µg/mL (≈ 2.96 µM)
MIC50 [11]: 1 µg/mL (≈ 2.96 µM)
MIC90 [11]: 1 µg/mL (≈ 2.96 µM)
MIC50 ([12]; Enterococcus faecalis): 1 µg/mL (≈ 2.96 µM)
MIC90 ([12]; Enterococcus faecalis): 1 µg/mL (≈ 2.96 µM)
SMILES: CC(=O)NC[C@H]1CN(c2ccc(N3CCOCC3)c(F)c2)C(=O)O1 [Linezolid, reference compound]

SMILES: CNC(CC(C)C)C(=O)NC1C(=O)NC(CC(N)=O)C(=O)NC2C(=O)NC3C(=O)NC(C(=O)NC(C(=O)O)c4cc(O)c(CNCCOCCOCCOCCN(C)C)c(O)c4-c4cc3ccc4O)C(O)c3ccc(c(Cl)c3)Oc3cc2cc(c3OC2OC(CO)C(O)C(O)C2OC2CC(C)(NCc3ccc(-c4ccc(Cl)cc4)cc3)C(O)C(C)O2)Oc2ccc(cc2Cl)C1O (centres unmarked) [Compound 14]
MIC 50% [1]: 2 µg/mL (≈ 1.06 µM)
MIC 90% [1]: 4 µg/mL (≈ 2.13 µM)
MIC 50% [2]: 0.25 µg/mL (≈ 0.133 µM)
MIC 90% [2]: 0.25 µg/mL (≈ 0.133 µM)
Max Kill (maximum decrease from initial infection level) [13, 19]: 0.83 Log10 CFU/thigh
AUCc-t (AUC difference between control and treated animals) [13, 19]: 11.4 (Log10 CFU/thigh)/hr
Max Kill (maximum decrease from initial infection level) [13, 20]: 0.19 Log10 CFU/thigh
AUCc-t (AUC difference between control and treated animals) [13, 20]: 19.4 (Log10 CFU/thigh)/hr
Max Kill (maximum decrease from initial infection level) [13, 21]: 0.03 Log10 CFU/thigh
AUCc-t (AUC difference between control and treated animals) [13, 21]: 36.1 (Log10 CFU/thigh)/hr
MIC 50% [3]: 8 µg/mL (≈ 4.25 µM)
MIC 90% [3]: 16 µg/mL (≈ 8.5 µM)
MIC 50% [4]: 0.12 µg/mL (≈ 0.0638 µM)
MIC 90% [4]: 0.12 µg/mL (≈ 0.0638 µM)
MIC 50% [14]: 0.12 µg/mL (≈ 0.0638 µM)
MIC 90% [14]: 0.12 µg/mL (≈ 0.0638 µM)
MIC 50% [5]: 0.12 µg/mL (≈ 0.0638 µM)
MIC 90% [5]: 0.12 µg/mL (≈ 0.0638 µM)
MIC 50% [6]: 0.12 µg/mL (≈ 0.0638 µM)
MIC 90% [6]: 0.12 µg/mL (≈ 0.0638 µM)
MIC 50% [15]: 0.5 µg/mL (≈ 0.266 µM)
MIC 50% [7]: 0.12 µg/mL (≈ 0.0638 µM)
MIC 90% [7]: 0.25 µg/mL (≈ 0.133 µM)
MIC 50% [8]: 0.12 µg/mL (≈ 0.0638 µM)
MIC 90% [8]: 0.5 µg/mL (≈ 0.266 µM)
MIC 50% [9]: 0.25 µg/mL (≈ 0.133 µM)
MIC 90% [9]: 0.5 µg/mL (≈ 0.266 µM)
MIC 50% [16]: 8 µg/mL (≈ 4.25 µM)
MIC 50% [10]: 0.12 µg/mL (≈ 0.0638 µM)
MIC 90% [10]: 0.12 µg/mL (≈ 0.0638 µM)
MIC 50% [17]: 0.06 µg/mL
MIC 90% [17]: 0.12 µg/mL
MIC 50% [12]: 0.25 µg/mL (≈ 0.133 µM)
MIC 90% [12]: 0.25 µg/mL (≈ 0.133 µM)
MIC 50% [18]: 0.06 µg/mL
MIC 90% [18]: 0.06 µg/mL

SMILES: CNC(CC(C)C)C(=O)NC1C(=O)NC(CC(N)=O)C(=O)NC2C(=O)NC3C(=O)NC(C(=O)NC(C(=O)O)c4cc(O)c(CNCCOCCOCCN)c(O)c4-c4cc3ccc4O)C(O)c3ccc(c(Cl)c3)Oc3cc2cc(c3OC2OC(CO)C(O)C(O)C2OC2CC(C)(NCc3ccc(OCc4ccc(Cl)c(Cl)c4)cc3)C(O)C(C)O2)Oc2ccc(cc2Cl)C1O (centres unmarked) [Compound 28]
MIC 50% [1]: 0.5 µg/mL (≈ 0.267 µM)
MIC 90% [1]: 1 µg/mL (≈ 0.533 µM)
MIC 50% [2]: 0.12 µg/mL (≈ 0.064 µM)
MIC 90% [2]: 0.12 µg/mL (≈ 0.064 µM)
Max Kill (maximum decrease from initial infection level) [13, 19]: 0.61 Log10 CFU/thigh
AUCc-t (AUC difference between control and treated animals) [13, 19]: 19.1 (Log10 CFU/thigh)/hr
Max Kill (maximum decrease from initial infection level) [13, 20]: 0.75 Log10 CFU/thigh
AUCc-t (AUC difference between control and treated animals) [13, 20]: 17.3 (Log10 CFU/thigh)/hr
Max Kill (maximum decrease from initial infection level) [13, 21]: −0.02 Log10 CFU/thigh
AUCc-t (AUC difference between control and treated animals) [13, 21]: 38.2 (Log10 CFU/thigh)/hr
MIC 50% [3]: 2 µg/mL (≈ 1.07 µM)
MIC 90% [3]: 4 µg/mL (≈ 2.13 µM)
MIC 50% [4]: 0.06 µg/mL (≈ 0.032 µM)
MIC 90% [4]: 0.06 µg/mL (≈ 0.032 µM)
MIC 50% [14]: 0.06 µg/mL (≈ 0.032 µM)
MIC 90% [14]: 0.06 µg/mL (≈ 0.032 µM)
MIC 50% [5]: 0.03 µg/mL (≈ 0.016 µM)
MIC 90% [5]: 0.06 µg/mL (≈ 0.032 µM)
MIC 50% [6]: 0.03 µg/mL (≈ 0.016 µM)
MIC 90% [6]: 0.06 µg/mL (≈ 0.032 µM)
MIC 50% [15]: 0.12 µg/mL (≈ 0.064 µM)
MIC 50% [7]: 0.06 µg/mL (≈ 0.032 µM)
MIC 90% [7]: 0.06 µg/mL (≈ 0.032 µM)
MIC 50% [8]: 0.06 µg/mL (≈ 0.032 µM)
MIC 90% [8]: 0.12 µg/mL (≈ 0.064 µM)
MIC 50% [9]: 0.06 µg/mL (≈ 0.032 µM)
MIC 90% [9]: 0.25 µg/mL (≈ 0.133 µM)
MIC 50% [16]: 2 µg/mL (≈ 1.07 µM)
MIC 50% [10]: 0.03 µg/mL (≈ 0.016 µM)
MIC 90% [10]: 0.03 µg/mL (≈ 0.016 µM)
MIC 50% [17]: 0.03 µg/mL
MIC 90% [17]: 0.06 µg/mL
MIC 50% [12]: 0.06 µg/mL (≈ 0.032 µM)
MIC 90% [12]: 0.12 µg/mL (≈ 0.064 µM)
fold more potent than teicoplanin and daptomycin ([18]; β-hemolytic streptococci): two- to four
fold more potent than vancomycin ([18]; β-hemolytic streptococci): four- to eight
MIC 50% [18]: 0.03 µg/mL
MIC 90% [18]: 0.06 µg/mL
